Measurements: patent US11472788B2, “Benzoimidazoles as selective inhibitors of indoleamine 2,3-dioxygenases” (BEIGENE, LTD., priority 2017, dated 2022)

Biological target: cellular IDO1 in HeLa cells (Homo sapiens (Human), UniProt P14902)
Experiment: HeLa Cell-Based IDO1 Kyn (Kynurenine) Production Assay
Settings: IFN-γ induced IDO1, 48 hours incubation, Kyn absorbance at 480 nm
Description: HeLa Cell-Based IDO1 Kyn (Kynurenine) Production Assay:
The inhibitory activity of IDO1 inhibitors is determined by using a colorimetric reaction to measure Kyn generated from L-Trp (L-Tryptophon) oxidation by cellular IDO1 in HeLa cells after induction of IDO1 expression by IFN-γ.
Hela cells were obtained from the American Type Culture Collection and recovered in 10% FBS-containing phenol red-free DMEM medium. Cells were plated onto a 96-well plate (100 μl/well) at 8000 cells per well and kept at 37° C. in a humidified incubator supplied with 5% CO2. 4 hours later, Human recombinant IFN-γ (8901SC, CST) was added to cells (final concentration 100 ng/mL) to stimulate endogenous IDOL. Compounds at different concentrations diluted in dimethylsulfoxide (DMSO) were added simultaneously with IFN-γ and 0.4 mM L-Trp. Cells were kept at 37° C. in a humidified incubator supplied with 5% CO2. After 48 hours of incubation, 100 μl supernatant from each well was removed to a new plate. The protein in the medium was precipitated with the addition of 8 μl 6N trichloroacetic acid. The plate was incubated at 60° C. for 30 minutes and then centrifugation at 2500 rpm for 10 minutes to remove sediments. 80 μl supernatants were carefully removed to a new clean plate and added with an equal volume of 2% 4-(Dimethylamino)benzaldehyde (D2004, sigma) dissolved in glacial acetic acid. The absorbance at 480 nm wavelength derived from Kyn was measured using a PHERAstar FS plate reader (BMG LABTECH). The IC5C for each compound was derived from fitting the dose-response data to the four-parameter logistic model by using XLfit software (IDBS).

cellular IDO1 in HeLa cells, sequence (P14902 whole entry): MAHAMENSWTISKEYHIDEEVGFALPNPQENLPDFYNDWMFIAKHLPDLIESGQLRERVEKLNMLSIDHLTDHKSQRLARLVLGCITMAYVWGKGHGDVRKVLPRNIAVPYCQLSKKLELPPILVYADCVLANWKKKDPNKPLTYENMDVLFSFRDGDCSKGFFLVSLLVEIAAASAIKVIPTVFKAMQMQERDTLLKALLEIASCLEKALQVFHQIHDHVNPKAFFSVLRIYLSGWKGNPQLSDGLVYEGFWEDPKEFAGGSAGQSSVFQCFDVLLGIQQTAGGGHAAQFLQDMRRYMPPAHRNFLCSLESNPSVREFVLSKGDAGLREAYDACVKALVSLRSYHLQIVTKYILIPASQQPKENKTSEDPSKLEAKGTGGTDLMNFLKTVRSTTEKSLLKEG

Row | Structure (SMILES) | EC50
1 | CC(C)c1ccc2[nH]c(C[C@H]3CC[C@H](c4ccnc5ccc(F)cc54)CC3)nc2c1 [Example A5a, 6-fluoro-4-((1r,4r)-4-((5-isopropyl-1H-benzo[d]imidazol-2-yl)methyl)cyclohexyl)quinoline] | 184 nM
2 | CC(C)c1ccc2[nH]c(C[C@H]3CC[C@@H](c4ccnc5ccc(F)cc54)CC3)nc2c1 [Example A5b, 6-fluoro-4-((1s,4s)-4-((5-isopropyl-1H-benzo[d]imidazol-2-yl)methyl)cyclohexyl)quinoline] | 23 nM
3 | Fc1ccc2nccc([C@H]3CC[C@H](Cc4nc5cc6c(cc5[nH]4)OCO6)CC3)c2c1 [Example A7a, 6-(((1r,4r)-4-(6-fluoroquinolin-4-yl)cyclohexyl)methyl)-5H-[1,3]dioxolo[4′,5′:4,5]benzo[1,2-d]imidazole] | 87 nM
4 | Fc1ccc2nccc([C@H]3CC[C@@H](Cc4nc5cc6c(cc5[nH]4)OCO6)CC3)c2c1 [Example A7b, 6-(((1s,4s)-4-(6-fluoroquinolin-4-yl)cyclohexyl)methyl)-5H-[1,3]dioxolo[4′,5′:4,5]benzo[1,2-d]imidazole] | 3.6 nM
5 | Fc1ccc2nccc([C@H]3CC[C@H](Cc4nc5cc(OC6CC6)ccc5[nH]4)CC3)c2c1 [Example A8a, 4-((1r,4r)-4-((5-cyclopropoxy-1H-benzo[d]imidazol-2-yl)methyl)cyclohexyl)-6-fluoroquinoline] | 528 nM
6 | Fc1ccc2nccc([C@H]3CC[C@@H](Cc4nc5cc(OC6CC6)ccc5[nH]4)CC3)c2c1 [Example A8b, 4-((1s,4s)-4-((5-cyclopropoxy-1H-benzo[d]imidazol-2-yl)methyl)cyclohexyl)-6-fluoroquinoline] | 50 nM
7 | Cc1c(Br)ccc2[nH]c(C[C@H]3CC[C@H](c4ccnc5ccc(F)cc54)CC3)nc12 [Example A11a, 4-((1r,4r)-4-((5-bromo-4-methyl-1H-benzo[d]imidazol-2-yl)methyl)cyclohexyl)-6-fluoroquinoline] | 135 nM
8 | Cc1c(Br)ccc2[nH]c(C[C@H]3CC[C@@H](c4ccnc5ccc(F)cc54)CC3)nc12 [Example A11b, 4-((1s,4s)-4-((5-bromo-4-methyl-1H-benzo[d]imidazol-2-yl)methyl)cyclohexyl)-6-fluoroquinoline] | 14 nM
9 | Fc1ccc2nccc(C3CCC(Cc4nc5cc(CN6CCCCC6)ccc5[nH]4)CC3)c2c1 (stereo not drawn) [Example A15, 6-fluoro-4-(4-((5-(piperidin-1-ylmethyl)-1H-benzo[d]imidazol-2-yl)methyl)cyclohexyl)quinoline] | 1950 nM
10 | Fc1ccc2nccc(C3CCC(Cc4nc5cc(N6CCCCC6)c(Br)cc5[nH]4)CC3)c2c1 (stereo not drawn) [Example A16, 4-(4-((6-bromo-5-(piperidin-1-yl)-1H-benzo[d]imidazol-2-yl)methyl)cyclohexyl)-6-fluoroquinoline] | 251 nM
11 | COc1cc2nc(CC3CCC(c4ccnc5ccc(F)cc45)CC3)[nH]c2cc1Br (stereo not drawn) [Example A17, 4-(4-((6-bromo-5-methoxy-1H-benzo[d]imidazol-2-yl)methyl)cyclohexyl)-6-fluoroquinoline] | 5 nM
12 | Fc1ccc(C2CCC(Cc3nc4cc(Cl)ccc4[nH]3)CC2)c2ncccc12 (stereo not drawn) [Example A24, 8-(4-((5-chloro-1H-benzo[d]imidazol-2-yl)methyl)cyclohexyl)-5-fluoroquinoline] | 158 nM
13 | Fc1ccc(C2CCC(Cc3nc4cc(C5CC5)ccc4[nH]3)CC2)c2cccnc12 (stereo not drawn) [Example A25, 5-(4-((5-cyclopropyl-1H-benzo[d]imidazol-2-yl)methyl)cyclohexyl)-8-fluoroquinoline] | 268 nM
14 | Fc1cc2nc(C[C@H]3CC[C@H](c4ccc(F)c5ncccc54)CC3)[nH]c2cc1F [Example A26a, 5-((1r,4r)-4-((5,6-difluoro-1H-benzo[d]imidazol-2-yl)methyl)cyclohexyl)-8-fluoroquinoline] | 466 nM
15 | Fc1cc2nc(C[C@H]3CC[C@@H](c4ccc(F)c5ncccc54)CC3)[nH]c2cc1F [Example A26b, 5-((1s,4s)-4-((5,6-difluoro-1H-benzo[d]imidazol-2-yl)methyl)cyclohexyl)-8-fluoroquinoline] | 205 nM
16 | Clc1ccc2[nH]c(CC3CCC(c4ccncc4)CC3)nc2c1 (stereo not drawn) [Example A28, 5-chloro-2-((4-(pyridin-4-yl)cyclohexyl)methyl)-1H-benzo[d]imidazole] | 1810 nM
17 | FC(F)(F)c1cc(C2CCC(Cc3nc4cc(Cl)ccc4[nH]3)CC2)ccn1 (stereo not drawn) [Example A29, 5-chloro-2-((4-(2-(trifluoromethyl)pyridin-4-yl)cyclohexyl)methyl)-1H-benzo[d]imidazole] | 179 nM
18 | c1ccc(C2CCC(Cc3nc4cc(C5CC5)ccc4[nH]3)CC2)cc1 (stereo not drawn) [Example A31, 5-cyclopropyl-2-((4-phenylcyclohexyl)methyl)-1H-benzo[d]imidazole] | 115 nM
19 | Clc1ccc2[nH]c(C3C4CCC(c5ccccc5)CC43)nc2c1 (stereo not drawn) [Example A36, 5-chloro-2-(3-phenylbicyclo[4.1.0]heptan-7-yl)-1H-benzo[d]imidazole] | 1670 nM
20 | Fc1ccc2nccc(C3CCN(Cc4nc5cc(Cl)ccc5[nH]4)CC3)c2c1 [Example A39, 4-(1-((5-chloro-1H-benzo[d]imidazol-2-yl)methyl)piperidin-4-yl)-6-fluoroquinoline] | 150 nM
21 | COC(=O)c1ccc2[nH]c([C@@H](C)[C@H]3CC[C@@H](c4ccnc5ccc(F)cc54)CC3)nc2c1 [Example B3a, methyl 2-((S)-1-((1s,4R)-4-(6-fluoroquinolin-4-yl)cyclohexyl)ethyl)-1H-benzo[d]imidazole-5-carboxylate] | 0.55 nM
22 | COC(=O)c1ccc2[nH]c([C@H](C)[C@H]3CC[C@@H](c4ccnc5ccc(F)cc54)CC3)nc2c1 [Example B3b, methyl 2-((R)-1-((1s,4S)-4-(6-fluoroquinolin-4-yl)cyclohexyl)ethyl)-1H-benzo[d]imidazole-5-carboxylate] | 81 nM

The remaining lines, values ahead:

Row | EC50 | Structure (SMILES)
23 | 59 nM | C[C@H](c1nc2cc(F)c(F)cc2[nH]1)[C@H]1CC[C@@H](c2ccnc3ccc(F)cc32)CC1 [Example B1b, 4-((1R,4s)-4-((S)-1-(5,6-difluoro-1H-benzo[d]imidazol-2-yl)ethyl)cyclohexyl)-6-fluoroquinoline]
24 | 0.95 nM | C[C@@H](c1nc2cc(Cl)c(F)cc2[nH]1)[C@H]1CC[C@@H](c2ccnc3ccc(F)cc32)CC1 [Example B2, 4-((1S,4s)-4-((R)-1-(5-chloro-6-fluoro-1H-benzo[d]imidazol-2-yl)ethyl)cyclohexyl)-6-fluoroquinoline]
25 | 0.38 nM | C[C@@H](c1nc2cc(Cl)c(F)cc2[nH]1)[C@H]1CC[C@@H](c2ccnc3ccc(F)cc32)CC1 [Example B2a, 4-((1R,4s)-4-((S)-1-(5-chloro-6-fluoro-1H-benzo[d]imidazol-2-yl)ethyl)cyclohexyl)-6-fluoroquinoline]
26 | 50 nM | C[C@H](c1nc2cc(Cl)c(F)cc2[nH]1)[C@H]1CC[C@@H](c2ccnc3ccc(F)cc32)CC1 [Example B2b, 4-((1S,4s)-4-((R)-1-(5-chloro-6-fluoro-1H-benzo[d]imidazol-2-yl)ethyl)cyclohexyl)-6-fluoroquinoline]
27 | 1.3 nM | COC(=O)c1ccc2[nH]c(C(C)C3CCC(c4ccnc5ccc(F)cc45)CC3)nc2c1 (stereo not drawn) [Example B3, methyl 2-(1-(4-(6-fluoroquinolin-4-yl)cyclohexyl)ethyl)-1H-benzo[d]imidazole-5-carboxylate]
28 | 1.4 nM | C[C@@H](c1nc2cc(C(F)(F)F)ccc2[nH]1)[C@H]1CC[C@@H](c2ccnc3ccc(F)cc32)CC1 [Example B4, 6-fluoro-4-((1S,4s)-4-((R)-1-(5-(trifluoromethyl)-1H-benzo[d]imidazol-2-yl)ethyl)cyclohexyl)quinoline]
29 | 1.4 nM | C[C@@H](c1nc2c(F)cc(F)c(F)c2[nH]1)[C@H]1CC[C@@H](c2ccnc3ccc(F)cc32)CC1 [Example B5, 6-fluoro-4-((1S,4s)-4-((R)-1-(4,6,7-trifluoro-1H-benzo[d]imidazol-2-yl)ethyl)cyclohexyl)quinoline]
30 | 6.9 nM | C[C@H](c1nc2ccc(C#N)cc2[nH]1)[C@H]1CC[C@@H](c2ccnc3ccc(F)cc32)CC1 [Example B8, 2-((S)-1-((1s,4R)-4-(6-fluoroquinolin-4-yl)cyclohexyl)ethyl)-1H-benzo[d]imidazole-6-carbonitrile]
31 | 46 nM | C[C@@H](c1nc2cc(C(=O)N(C)C)ccc2[nH]1)[C@H]1CC[C@@H](c2ccnc3ccc(F)cc32)CC1 [Example B12, 2-((R)-1-((1s,4S)-4-(6-fluoroquinolin-4-yl)cyclohexyl)ethyl)-N,N-dimethyl-1H-benzo[d]imidazole-5-carboxamide]
32 | 0.58 nM | CCOC(=O)c1ccc2[nH]c([C@H](C)[C@H]3CC[C@@H](c4ccnc5ccc(F)cc54)CC3)nc2c1 [Example B17, ethyl 2-((R)-1-((1s,4S)-4-(6-fluoroquinolin-4-yl)cyclohexyl)ethyl)-1H-benzo[d]imidazole-5-carboxylate]
33 | 5.1 nM | C[C@H](c1nc2ccc(Cl)cc2[nH]1)C1CCC(c2cnc3ccccc3c2)CC1 (stereo partly drawn) [Example B25a, (S)-3-(4-(1-(6-chloro-1H-benzo[d]imidazol-2-yl)ethyl)cyclohexyl)quinoline]
